Tests used:
lipoamide = compound: NC(=O)CCCCC1CCSS1 [lipoamide]; experiment: thermal stability z-score vs DMSO; higher = more thermally stabilized by treatment; conditions: HeLa, lipoamide concentration 100 µM
Experimental: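 Cellular thermal proteome profiling in HeLa cells. Cells were treated with 100 µM lipoamide for 1 h, with or without 1 mM arsenate for a further 1 h, then heated to ten temperatures (37-66.3 °C), and soluble protein was quantified by TMT mass spectrometry relative to 0.1% DMSO controls. The thermal stability score (sum of log2 fold changes minus the abundance score) was transformed to a z-score; mean of n = 3 experiments.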

potassium arsenate = compound: O=[As]([O-])(O)O.[K+] [potassium arsenate]; experiment: as above; conditions: HeLa; arsenate concentration 1 mM
Experimental: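 Cellular thermal proteome profiling in HeLa cells treated with 1 mM arsenate for 1 h (DMSO pretreatment), heated to ten temperatures (37-66.3 °C). Soluble protein was quantified by TMT mass spectrometry relative to DMSO controls; the thermal stability score was transformed to a z-score; mean of n = 3 experiments.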

[1] = arsenate co-treatment: 1 mM arsenate 1 h
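Further: each temperature applied for 3 min, abundance score taken as mean log2 fold change at the two lowest temperatures, z-score obtained by mean subtraction and division by SD.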

Chain of UniProt O94915 (O94915 whole entry): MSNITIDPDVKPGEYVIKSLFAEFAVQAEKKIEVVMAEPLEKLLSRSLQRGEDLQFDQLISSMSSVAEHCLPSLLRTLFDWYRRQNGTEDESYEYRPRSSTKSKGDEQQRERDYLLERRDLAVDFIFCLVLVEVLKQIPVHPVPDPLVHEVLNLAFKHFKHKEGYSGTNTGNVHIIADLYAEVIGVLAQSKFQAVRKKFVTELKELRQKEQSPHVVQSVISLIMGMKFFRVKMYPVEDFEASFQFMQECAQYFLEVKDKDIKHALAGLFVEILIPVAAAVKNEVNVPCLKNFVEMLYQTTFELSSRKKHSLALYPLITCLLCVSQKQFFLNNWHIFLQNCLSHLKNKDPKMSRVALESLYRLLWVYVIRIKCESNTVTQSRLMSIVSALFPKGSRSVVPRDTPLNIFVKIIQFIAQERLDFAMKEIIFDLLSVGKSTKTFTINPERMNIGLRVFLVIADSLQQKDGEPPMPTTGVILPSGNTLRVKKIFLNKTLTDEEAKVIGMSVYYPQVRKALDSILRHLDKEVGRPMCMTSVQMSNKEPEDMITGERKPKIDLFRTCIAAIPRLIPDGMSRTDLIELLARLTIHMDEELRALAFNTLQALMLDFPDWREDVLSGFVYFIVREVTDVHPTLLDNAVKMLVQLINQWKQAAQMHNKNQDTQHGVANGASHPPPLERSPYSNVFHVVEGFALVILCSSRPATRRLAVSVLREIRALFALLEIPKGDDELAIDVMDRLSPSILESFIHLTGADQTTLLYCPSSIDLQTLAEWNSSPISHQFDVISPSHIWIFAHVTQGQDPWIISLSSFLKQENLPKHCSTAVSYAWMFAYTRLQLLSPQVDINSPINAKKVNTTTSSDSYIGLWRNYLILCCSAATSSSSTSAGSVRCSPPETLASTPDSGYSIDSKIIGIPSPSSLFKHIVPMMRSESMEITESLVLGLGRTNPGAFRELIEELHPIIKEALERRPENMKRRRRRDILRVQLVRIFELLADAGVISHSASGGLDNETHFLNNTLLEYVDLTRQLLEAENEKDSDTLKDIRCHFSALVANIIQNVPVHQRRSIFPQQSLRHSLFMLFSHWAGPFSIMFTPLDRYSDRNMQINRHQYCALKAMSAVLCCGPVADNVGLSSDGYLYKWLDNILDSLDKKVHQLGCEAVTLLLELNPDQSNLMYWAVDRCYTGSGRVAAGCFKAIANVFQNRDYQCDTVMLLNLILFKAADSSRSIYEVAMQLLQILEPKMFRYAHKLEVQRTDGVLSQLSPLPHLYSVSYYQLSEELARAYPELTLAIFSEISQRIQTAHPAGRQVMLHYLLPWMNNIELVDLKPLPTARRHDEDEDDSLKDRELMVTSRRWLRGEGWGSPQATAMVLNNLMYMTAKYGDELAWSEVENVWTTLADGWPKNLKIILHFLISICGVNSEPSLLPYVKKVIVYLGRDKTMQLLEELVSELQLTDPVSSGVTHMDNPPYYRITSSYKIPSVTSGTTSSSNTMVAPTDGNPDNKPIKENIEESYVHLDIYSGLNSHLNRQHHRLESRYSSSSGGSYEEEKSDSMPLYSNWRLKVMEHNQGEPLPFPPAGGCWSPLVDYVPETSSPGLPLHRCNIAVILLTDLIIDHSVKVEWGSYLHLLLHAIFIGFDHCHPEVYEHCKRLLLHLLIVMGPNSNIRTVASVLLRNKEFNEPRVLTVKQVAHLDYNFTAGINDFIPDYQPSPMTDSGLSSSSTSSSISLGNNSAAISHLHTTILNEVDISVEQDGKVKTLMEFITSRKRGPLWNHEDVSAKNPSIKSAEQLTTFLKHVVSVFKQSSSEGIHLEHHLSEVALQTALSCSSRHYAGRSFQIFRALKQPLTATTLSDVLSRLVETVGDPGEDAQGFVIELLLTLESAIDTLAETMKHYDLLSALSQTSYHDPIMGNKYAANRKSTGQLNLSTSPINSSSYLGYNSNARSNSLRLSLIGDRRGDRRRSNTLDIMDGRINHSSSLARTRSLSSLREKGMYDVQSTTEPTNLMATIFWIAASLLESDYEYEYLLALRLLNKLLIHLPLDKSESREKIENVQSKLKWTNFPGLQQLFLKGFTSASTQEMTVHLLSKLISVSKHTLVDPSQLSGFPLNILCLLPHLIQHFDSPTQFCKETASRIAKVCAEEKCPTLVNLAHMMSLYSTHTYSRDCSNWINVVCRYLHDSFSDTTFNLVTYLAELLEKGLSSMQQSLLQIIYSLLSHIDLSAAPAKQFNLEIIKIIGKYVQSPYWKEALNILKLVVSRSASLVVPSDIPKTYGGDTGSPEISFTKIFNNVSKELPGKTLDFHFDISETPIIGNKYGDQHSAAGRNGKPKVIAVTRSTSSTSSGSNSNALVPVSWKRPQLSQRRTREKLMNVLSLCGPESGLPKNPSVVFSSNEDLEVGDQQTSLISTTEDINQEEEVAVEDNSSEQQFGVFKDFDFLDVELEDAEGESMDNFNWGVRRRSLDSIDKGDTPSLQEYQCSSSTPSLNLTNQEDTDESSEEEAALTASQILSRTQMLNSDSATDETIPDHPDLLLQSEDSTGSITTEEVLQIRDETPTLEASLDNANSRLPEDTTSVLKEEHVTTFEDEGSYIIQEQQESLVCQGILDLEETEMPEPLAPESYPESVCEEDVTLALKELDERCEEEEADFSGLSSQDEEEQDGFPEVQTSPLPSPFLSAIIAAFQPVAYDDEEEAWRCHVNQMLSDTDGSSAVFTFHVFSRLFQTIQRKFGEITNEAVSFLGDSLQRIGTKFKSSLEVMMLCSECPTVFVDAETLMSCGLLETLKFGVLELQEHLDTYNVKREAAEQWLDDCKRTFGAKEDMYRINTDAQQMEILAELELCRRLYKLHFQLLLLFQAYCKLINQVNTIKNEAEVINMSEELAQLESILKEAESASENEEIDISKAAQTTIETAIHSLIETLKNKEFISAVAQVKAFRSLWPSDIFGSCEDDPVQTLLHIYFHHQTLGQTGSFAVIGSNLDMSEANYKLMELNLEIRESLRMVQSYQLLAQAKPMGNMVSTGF
Chain of UniProt O14772 (O14772 whole entry): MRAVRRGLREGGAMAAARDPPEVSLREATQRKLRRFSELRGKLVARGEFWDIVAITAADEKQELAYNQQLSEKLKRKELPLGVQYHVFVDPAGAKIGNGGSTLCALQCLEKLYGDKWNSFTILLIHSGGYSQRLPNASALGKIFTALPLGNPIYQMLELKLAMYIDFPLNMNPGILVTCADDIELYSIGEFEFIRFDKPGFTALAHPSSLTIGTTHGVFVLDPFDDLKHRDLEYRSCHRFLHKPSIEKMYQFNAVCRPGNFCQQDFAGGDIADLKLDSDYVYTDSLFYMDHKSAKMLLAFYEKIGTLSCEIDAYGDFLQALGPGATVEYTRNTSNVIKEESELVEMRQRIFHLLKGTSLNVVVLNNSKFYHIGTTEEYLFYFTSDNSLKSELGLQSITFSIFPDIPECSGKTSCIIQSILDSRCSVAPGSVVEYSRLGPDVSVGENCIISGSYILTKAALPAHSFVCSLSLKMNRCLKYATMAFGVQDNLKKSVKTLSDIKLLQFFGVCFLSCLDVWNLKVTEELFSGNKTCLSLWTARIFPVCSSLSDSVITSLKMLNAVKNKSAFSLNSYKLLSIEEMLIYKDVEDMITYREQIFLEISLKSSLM
Chain of UniProt Q12778 (Q12778 whole entry): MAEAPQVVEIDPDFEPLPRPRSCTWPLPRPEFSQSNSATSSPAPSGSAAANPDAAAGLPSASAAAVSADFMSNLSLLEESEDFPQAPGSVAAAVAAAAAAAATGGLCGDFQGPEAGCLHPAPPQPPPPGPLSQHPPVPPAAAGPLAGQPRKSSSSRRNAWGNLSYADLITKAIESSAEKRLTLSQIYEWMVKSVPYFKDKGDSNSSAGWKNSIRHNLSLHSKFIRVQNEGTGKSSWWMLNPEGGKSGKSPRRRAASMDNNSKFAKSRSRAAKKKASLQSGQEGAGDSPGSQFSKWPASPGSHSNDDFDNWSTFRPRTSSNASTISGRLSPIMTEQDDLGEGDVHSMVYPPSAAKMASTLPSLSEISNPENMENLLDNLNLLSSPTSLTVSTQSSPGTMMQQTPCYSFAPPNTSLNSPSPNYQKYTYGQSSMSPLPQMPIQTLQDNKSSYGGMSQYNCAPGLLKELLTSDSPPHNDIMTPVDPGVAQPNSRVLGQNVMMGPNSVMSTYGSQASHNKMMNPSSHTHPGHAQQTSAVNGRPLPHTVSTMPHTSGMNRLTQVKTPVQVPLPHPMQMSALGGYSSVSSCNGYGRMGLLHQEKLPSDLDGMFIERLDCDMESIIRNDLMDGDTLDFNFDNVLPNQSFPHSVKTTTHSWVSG
Chain of UniProt Q16595 (Q16595 whole entry): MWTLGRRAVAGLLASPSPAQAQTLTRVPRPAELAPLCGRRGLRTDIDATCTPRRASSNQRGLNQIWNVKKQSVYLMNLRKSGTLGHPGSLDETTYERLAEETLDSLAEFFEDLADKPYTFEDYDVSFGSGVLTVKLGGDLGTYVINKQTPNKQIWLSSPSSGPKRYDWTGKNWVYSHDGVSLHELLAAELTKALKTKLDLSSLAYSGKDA
Chain of UniProt Q6ZNA5 (Q6ZNA5 whole entry): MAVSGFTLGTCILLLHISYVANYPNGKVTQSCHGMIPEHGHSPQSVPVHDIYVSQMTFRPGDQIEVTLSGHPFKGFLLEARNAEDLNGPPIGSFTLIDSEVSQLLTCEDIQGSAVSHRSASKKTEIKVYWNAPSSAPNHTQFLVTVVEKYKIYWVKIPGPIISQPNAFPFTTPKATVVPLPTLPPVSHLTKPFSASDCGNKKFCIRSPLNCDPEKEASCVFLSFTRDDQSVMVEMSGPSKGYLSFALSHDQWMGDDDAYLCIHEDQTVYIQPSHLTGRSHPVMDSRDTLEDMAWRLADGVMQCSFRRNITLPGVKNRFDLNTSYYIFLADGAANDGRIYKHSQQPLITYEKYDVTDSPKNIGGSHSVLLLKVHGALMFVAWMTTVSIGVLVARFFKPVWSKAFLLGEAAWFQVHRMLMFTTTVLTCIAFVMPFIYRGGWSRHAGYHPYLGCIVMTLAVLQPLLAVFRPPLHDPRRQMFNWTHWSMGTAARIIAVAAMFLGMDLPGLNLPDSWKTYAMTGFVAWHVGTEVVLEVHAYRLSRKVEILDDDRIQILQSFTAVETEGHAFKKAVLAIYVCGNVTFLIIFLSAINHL

Target	thermal stability z-score (lipoamide; [1])	thermal stability z-score (lipoamide; arsenate co-treatment: none)	thermal stability z-score (potassium arsenate)
FLAD1 (UniProt Q8NFF5)	0.0301	0.05	-1.16
FLII (UniProt Q13045)	-0.35	0.0176	0.68
FLJ13984|METTL8	-0.0305	-0.13	0.187
FLNA (UniProt P21333)	0.22	0.544	-0.4
FLNB (UniProt O75369)	0.683	0.798	-0.574
FLNC (UniProt Q14315)	0.266	0.657	0.567
FLOT1 (UniProt O75955)	1.38	0.653	-0.283
FLOT2 (UniProt Q14254)	0.746	0.534	-1.32
FLVCR1 (UniProt Q9Y5Y0)	-0.393	-0.367	-0.43
FLYWCH2 (UniProt Q96CP2)	0.101	0.222	0.0187
FMNL1 (UniProt O95466)	-0.412	-0.507	-0.153
FMNL2 (UniProt Q96PY5)	0.0679	-0.0271	-0.048
FMR1 (UniProt Q06787)	0.0851	0.195	0.0999
FN3KRP (UniProt Q9HA64)	-0.401	0.365	0.155
FNBP1 (UniProt Q96RU3)	0.146	0.0859	0.336
FNBP1L (UniProt Q5T0N5)	-0.051	0.0394	-0.284
FNBP4 (UniProt Q8N3X1)	0.826	1.2	-0.51
FNDC3A (UniProt Q9Y2H6)	-0.542	0.324	0.846
FNDC3B (UniProt Q53EP0)	-0.593	0.623	3.13
FNIP1 (UniProt Q8TF40)	0.272	0.0643	0.000327
FNTA (UniProt P49354)	-0.0233	-0.0253	0.355
FOCAD (UniProt Q5VW36)	0.151	0.411	-0.279
FOLR1 (UniProt P15328)	0.588	0.376	0.366
FOSL1 (UniProt P15407)	0.361	-0.0186	-0.444
FOSL2 (UniProt P15408)	1.86	0.702	-2.25
FOXK1 (UniProt P85037)	0.345	-0.0499	1.86
FOXK2 (UniProt Q01167)	0.0506	-0.306	0.133
FOXO1 (UniProt Q12778)	-0.211	-0.123	0.182

Target	thermal stability z-score (lipoamide; [1])	thermal stability z-score (lipoamide; arsenate co-treatment: none)	thermal stability z-score (potassium arsenate)
FOXO3 (UniProt O43524)	-0.0135	-0.184	0.19
FOXP4 (UniProt Q8IVH2)	-0.605	-0.281	0.363
FOXRED1 (UniProt Q96CU9)	-0.111	-0.24	0.0548
FOXRED2 (UniProt Q8IWF2)	-1.43	-1.2	0.897
FPGS (UniProt Q05932)	0.0221	-0.181	0.864
FPGT (UniProt O14772)	-0.111	0.182	0.0182
FRA10AC1 (UniProt Q70Z53)	0.081	0.0654	0.108
FRG1 (UniProt Q14331)	0.146	0.243	0.312
FRMD8 (UniProt Q9BZ67)	0.263	0.131	-0.172
FRRS1 (UniProt Q6ZNA5)	-0.316	-0.157	0.586
FRYL (UniProt O94915)	-0.0982	0.156	0.161
FSCN1 (UniProt Q16658)	0.0281	-0.236	-1.09
FSTL3 (UniProt O95633)	-3.19	-2.34	0.0815
FTH1 (UniProt P02794)	0.266	0.204	-2.18
FTO (UniProt Q9C0B1)	-0.0697	-0.447	1.38
FTSJ1 (UniProt Q9UET6)	-0.787	-0.171	-0.793
FTSJ3 (UniProt Q8IY81)	-0.198	0.792	-0.519
FUBP1 (UniProt Q96AE4)	0.139	0.157	0.0234
FUBP3 (UniProt Q96I24)	0.25	0.329	0.385
FUCA2 (UniProt Q9BTY2)	-0.251	-0.214	1.09
FUK (UniProt Q8N0W3)	0.775	0.461	0.0734
FUNDC2 (UniProt Q9BWH2)	0.0791	-0.555	-0.587
FURIN (UniProt P09958)	0.3	0.345	0.11
FUS (UniProt P35637)	0.844	1.27	0.635
FUT8 (UniProt Q9BYC5)	-0.561	-0.0456	0.521
FUT11 (UniProt Q495W5)	-1.71	-0.756	0.00651
FXN (UniProt Q16595)	0.688	0.447	1.14

— the supplement of paper PMC12463676, “Small-molecule dissolution of stress granules by redox modulation benefits ALS models” (Nature Chemical Biology, 2025)
